Measured values published in US20230263909A1, “ENHANCED EFFECTS OF GENE-IMMUNOTHERAPY AND IMMUNOSUPPRESSANTS IN MULTIPLE SCLEROSIS” (University of Florida Research Foundation, Incorporated, priority 2020, published 2023).
Where two headings read alike, the source gives them in different places.

How the values were obtained:
CD4+CD25hiFOXP3+ Tregs = assay: Peripheral blood Treg phenotyping before and after rapamycin; assay type: in vivo, C57BL/6 mice; details: after rapamycin
From the text: Flow Cytometry. Peripheral blood cells or splenocytes harvested from mice and processed to produce single-cell suspensions were stained with antibodies to CD3 (145-2C11), CD4 (RM4-5), CD25 (PC61), CD8 (53-6.7), B220 (RA3-6B2), CD44 (IM7), and CD62L (MEL14) (BD Biosciences, San Jose, CA, USA). Class II MHC tetramers included MOG38-49/I-Ab class II MHC (GWYRSPFSRVVH) and h.CLIP87-101 (PVSKMRMATPLLMQA), and were provided by the NIH Tetramer Core (Emory University, Atlanta, GA, USA). Red blood cell lysis was performed with VersaLyse (Beckman Coulter, Brea, CA, USA). Intracellular staining for FOXP3 was performed using the FOXP3 staining kit (eBioscience, San Diego, CA, USA). Samples were analyzed on an LSR-II flow cytometer (BD Biosciences) and post-analyzed using FCS Express 4 (Denovo Software, Los Angeles, CA, USA).
Rapamycin blocks the activation of a serine/threonine protein kinase called mammalian target of rapamycin (mTOR), which has a potent anti-proliferative effect on antigen-stimulated effector T and B cells. […] In contrast, when analyzed after the final rapamycin dose on day 10, there was an ~33% difference in total Tregs between control mice receiving rapamycin alone and AAV8.MOG-treated animals (FIGS. 24D and 24E).
CD44 is a cell-surface glycoprotein involved in cell-to-cell interactions that are important in activation, migration, and apoptosis.

[1] = system: plasma alanine aminotransferase (ALT); assay: Plasma alanine aminotransferase (ALT) activity; assay type: in vivo, C57BL/6 mice
From the text: Although various proteins have been safely expressed in the liver following AAV gene transfer,^89 evaluating the long-term stability of MOG expression in hepatocytes in the context of induced EAE was of interest. […] Additionally, hepatocyte expression of MOG persisted in the mice that received AAV8.MOG until termination of experiment at 200 days after EAE induction (FIG. 20A).
Plasma ALT levels were also monitored as an indicator of liver damage and failure of therapy. As reported above, the level of ALT activity detected in AAV8.MOG-treated mice and control mice was unremarkable throughout the rapamycin treatment window (FIGS. 24G and 24H). […] Based on the profound level of neurological impairment the control mice were experiencing, the significant rise in ALT is indicative of liver toxicity associated with end-stage organ failure (FIGS. 24B and 24C).

[2] = system: established MOG35-55-induced EAE; assay: Therapeutic AAV8.MOG with transient rapamycin immunosuppression in established EAE; assay type: in vivo, C57BL/6 mice
Experimental: Vector Administration. […] Two weeks later, EAE was induced. To evaluate the therapeutic effect of vector administration, EAE was induced first in 9- to 11-week-old mice before the administration of vectors. As mice reached the targeted/indicated severity of disease they were injected with […] of AAV8.MOG or control vector (scAAV.GFP or sham/PBS) via the tail vein. Rapamycin (LC Laboratories, Woburn, MA, USA) was dissolved in a vehicle solution containing (0.2% w/v) carboxymethyl-cellulose sodium salt (C-5013) and (0.25% v/v) polysorbate-80 (P-8074) (Sigma, St. Louis, MO, USA) in distilled water and stored at 4° C. protected from light according to the manufacturer’s instructions. Rapamycin (5 mg/kg) was given i.p. as indicated for a total of three and five doses beginning on the day of vector administration.
To test the hypothesis, the experimental parameters that previously produced the smallest degree of disease reversal were reestablished (FIG. 23C). EAE was induced and AAV8.MOG treatment was withheld until mice developed complete tail paralysis with hind-leg paresis (MCS: 1.4 ± 0.1, combined). Immediately after being treated with either AAV8.MOG or PBS/control, all mice received an intraperitoneal injection of rapamycin (5 mg/kg). Subsequently, mice received two additional doses of rapamycin (5 mg/kg) 48 hr apart (FIGS. 24). As expected, EAE disease progressed quickly and both groups of mice developed severe neurological deficits and paralysis (peak MCS: 2.9-3.0) (FIG. 24A). […] In contrast, neurological deficits in AAV8.MOG-treated mice continued to decrease, and all but one animal (90%) achieved complete remission (final MCS: 0.5 ± 0.3) (FIG. 24A).
Next, the effectiveness of the combined immunotherapy in late and end-stage EAE disease was tested. […] Remarkably, mice that received the AAV8.MOG/rapamycin immunotherapy, 71% (FIG. 24B) and 80% (FIG. 24C), respectively, responded to the treatment and went into near-complete remission (MCS: […]) by day ~30.

MOG35-55-induced EAE = details: vector at MCS <2.5, PRDL at MCS ≥ 3.0 (FIG. 33A)
Experimental: Using 8-week-old Female C57BL/6 mice, EAE was induced with a myelin oligodendrocyte glycoprotein epitope (MOG35-55) in CFA. As mice developed disease (MCS 2.0± 0.5), mice were injected with a hepatocyte-directed viral vector encoding MOG (e.g., AAV.MOG vector) and began daily administration of prednisolone (PRDL) via oral gavage (10 mg/kg animal) every 24 hours until day 7. Control mice were treated with prednisolone only, without the administration of vector or with Null vector. At day 7, prednisolone treatment was discontinued, except for the half of the control group receiving treatment which continued receiving prednisolone.
An experiment was performed to assess the effect of supplementing rAAV therapy with PRDL in high clinical score mice. C57BL/6 mice were administered AAV.MOG or AAV.Null control at disease onset, or a mean clinical score of 2.0±0.5. Subsequently, at the peak of disease, or an MCS ≥ 3.0, mice were administered oral gavage of PRDL (10 mg/kg). […] Subsequently, at an MCS ≥ 3.0, mice were administered oral gavage of PRDL (10 mg/kg).
In an experiment in which the order of administrations was essentially reversed, C57BL/6 mice received AAV.MOG or AAV.Null after EAE developed to an MCS of 2.5 or higher. At the peak of disease (MCS ≥3.0), mice were started on oral gavage of PRDL as before.

Row | Compound | increase in activated Tregs (CD4+CD44+CD25hiFOXP3+) (CD4+CD25hiFOXP3+ Tregs) [%] | plasma ALT levels ([1]; 35 days post-treatment) | plasma ALT activity ([1]; throughout the rapamycin treatment window) | final MCS ([2]; rapamycin-only control mice, 35 days post-treatment, late-stage cohorts) | final MCS ([2]; treated at MCS 1.4 ± 0.1, all mice rapamycin 5 mg/kg i.p. x3) | mice relapsed by day 10 ([2]; treated at MCS 1.4 ± 0.1, rapamycin without vector) [%] | effect of PRDL on induction of tolerance by vector (MOG35-55-induced EAE) | effect of PRDL on induction of tolerance by vector (MOG35-55-induced EAE; listed as PDRL)
1 | CO[C@H]1C[C@@H]2CC[C@@H](C)[C@@](O)(O2)C(=O)C(=O)N2CCCC[C@H]2C(=O)O[C@H]([C@H](C)C[C@@H]2CC[C@@H](O)[C@H](OC)C2)CC(=O)[C@H](C)/C=C(\C)[C@@H](O)[C@@H](OC)C(=O)[C@H](C)C[C@H](C)/C=C/C=C/C=C/1C [rapamycin] | 10.5 | significant increase in plasma ALT levels | unremarkable | 3.6 ± 0.5 | 3.5 ± 0.3 | 100 |  | 
2 | C[C@]12C=CC(=O)C=C1CC[C@@H]1[C@@H]2[C@@H](O)C[C@@]2(C)[C@H]1CC[C@]2(O)C(=O)CO [PRDL, prednisolone] |  |  |  |  |  |  | did not interfere with induction of tolerance | did not interfere with, nor supplement, the ability of AAV.MOG to suppress EAE
